Laboratory results reported in PubChem BioAssay (NCI).
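A five-concentration, 48-hour dose response in 96-well plates underlies each endpoint, interpolated linearly between surrounding concentrations. GI50 marks 50% less growth. TGI: total growth inhibition.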 Where a SMILES comes first, the peptide text is derived from it.

Experiments:
Experiment in all cases: NCI tumour cell line growth inhibition, 48 h
NCI-H226 lung = system: NCI-H226 lung
MCF7 breast = system: MCF7 breast
DU-145 prostate = system: DU-145 prostate
OVCAR-4 ovarian = system: OVCAR-4 ovarian
SK-OV-3 ovarian = system: SK-OV-3 ovarian
MDA-MB-435 = system: MDA-MB-435
SNB-75 CNS = system: SNB-75 CNS
HOP-62 NSCLC = system: HOP-62 NSCLC
KM12 colon = system: KM12 colon

Compound | TGI (NCI-H226 lung) | TGI (MCF7 breast) | TGI (DU-145 prostate) | TGI (OVCAR-4 ovarian) | TGI (SK-OV-3 ovarian) | TGI (MDA-MB-435) | TGI (SNB-75 CNS) | TGI (HOP-62 NSCLC) | TGI (KM12 colon) | GI50 (NCI-H226 lung) | GI50 (MCF7 breast) | GI50 (DU-145 prostate) | GI50 (OVCAR-4 ovarian) | GI50 (SK-OV-3 ovarian) | GI50 (MDA-MB-435) | GI50 (SNB-75 CNS) | GI50 (HOP-62 NSCLC) | GI50 (KM12 colon)
CC(=O)Nc1cccc(N2C(=O)/C(=C\c3cccc(Oc4ccccc4)c3)S(=O)(=O)C2c2ccccc2)c1 (centres undefined) | > 100 µM | > 100 µM | > 100 µM | > 100 µM | > 100 µM | > 100 µM | > 100 µM | > 100 µM | > 100 µM |  |  |  |  |  |  |  |  | 
COc1ccc(NC(C)=O)cc1N1C(=O)/C(=C\c2ccccc2)SC1c1cc(OC)c(OC)c(OC)c1 (centres undefined) | 48.3 µM | > 100 µM | 80.6 µM |  | > 100 µM | > 100 µM |  | > 100 µM | 35.8 µM |  |  |  |  |  |  |  |  | 
CN(CC(=O)O)Cc1c(O)c(Cl)cc(Cl)c1Cl | 92.1 µM | > 100 µM | > 100 µM | > 100 µM | > 100 µM | > 100 µM | > 100 µM | > 100 µM | > 100 µM |  |  |  |  |  |  |  |  | 
NC(=O)C1CCCN1C(=O)C(N)Cc1ccccc1 (stereo not drawn) (H-Phe-Pro-NH2; configuration not given here) |  | > 100 µM | > 100 µM | > 100 µM |  | > 100 µM |  | > 100 µM |  |  |  |  |  |  |  |  |  | 
N#CC1=C2SCCN2C(=O)C(C#N)C12CCCCC2 (centres undefined) | > 100 µM | > 100 µM | > 100 µM | > 100 µM | > 100 µM | > 100 µM | > 100 µM | > 100 µM | > 100 µM |  |  |  |  |  |  |  |  | 
Cc1cc2c(c(O)c1-c1c(C)cc(O)c3c1C(=O)C=CC3=O)C(=O)C=CC2=O | 73.5 µM |  | 4.73 µM | 10.3 µM | 29 µM |  | 84.9 µM | 56.5 µM | 32.9 µM |  |  |  |  |  |  |  |  | 
O=C1c2cccnc2C(=O)c2c1c(C(=O)OCCN1CCCCC1)c1ccccn21 | 0.0867 µM | 0.0767 µM | 0.714 µM | 2.3 µM | 0.051 µM | 0.829 µM | 0.188 µM | 0.0313 µM | 9.02 µM | 0.0135 µM | 0.00575 µM | 0.0189 µM | 0.655 µM | 0.0124 µM | 0.0804 µM | 0.0189 µM | 0.00554 µM | 0.16 µM
COc1ccccc1CC(C)N (centres undefined) | > 100 µM |  |  | > 100 µM | > 100 µM |  | > 100 µM | > 100 µM | > 100 µM |  |  |  |  |  |  |  |  | 
C=C(C)[C@@H]1CCC2=C[C@H](C/C(C)=C\C3=CC(C)=C(O3)[C@H]1O)OC2=O | > 100 µM | > 100 µM | > 100 µM | > 100 µM |  | > 100 µM | > 100 µM |  | > 100 µM |  |  |  |  |  |  |  |  | 
CCCCCCCCCCCCCCCCCCNc1ccn(C2OC(CO)C(OP(=O)(O)OCC(O)COP(=O)(O)OCC3OC(n4cc(F)c(NCCCCCCCCCCCCCCCCCC)nc4=O)CC3O)C2O)c(=O)n1 (centres undefined) | > 50 µM | > 50 µM | > 50 µM | > 50 µM | > 50 µM | > 50 µM | > 50 µM | > 50 µM | > 50 µM |  |  |  |  |  |  |  |  | 
O=C(NCCC1CN(C(=O)OCc2ccccc2)c2ccccc21)OCc1ccccc1 (centres undefined) |  | > 100 µM | > 100 µM | > 100 µM | > 100 µM | > 100 µM | > 100 µM | > 100 µM | > 100 µM |  |  |  |  |  |  |  |  | 
